Patent US9067898B1, “Isothiazole derivatives as GPR120 agonists for the treatment of type II diabetes” (Janssen Pharmaceutica NV, priority 2014, dated 2015)

These compounds were tested against T1, Human GPR120 short form (Homo sapiens, UniProt Q5NUL3) (assay: Human GPR120 calcium flux assay (FLIPR), Procedure Calcium A). Conditions: HEK-293 cells expressing human GPR120 short form, 2500 cells/well; read-out: GPR120 Ca2+ Assay A EC50.
T1 construct: expressed in transfected cells
T1 sequence (Q5NUL3 1-361): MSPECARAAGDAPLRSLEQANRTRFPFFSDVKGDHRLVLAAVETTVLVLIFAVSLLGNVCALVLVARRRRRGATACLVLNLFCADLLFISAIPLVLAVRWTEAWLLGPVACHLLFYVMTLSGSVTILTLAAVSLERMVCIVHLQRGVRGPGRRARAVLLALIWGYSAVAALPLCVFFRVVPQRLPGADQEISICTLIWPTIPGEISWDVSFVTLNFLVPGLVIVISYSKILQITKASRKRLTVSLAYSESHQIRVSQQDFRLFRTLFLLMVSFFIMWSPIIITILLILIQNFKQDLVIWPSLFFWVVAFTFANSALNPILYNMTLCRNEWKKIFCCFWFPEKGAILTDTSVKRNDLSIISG
Type: cell-based
From the text: This in vitro assay serves to assess test compound agonist activity against the short splice variant (SVS with Accession number NM_001195755.1 confirmed by sequencing data) of the GPR120 receptor. The Human Short splice variant #2 (NM_001195755.1) is missing an in-frame coding exon compared to variant 1 (the Human Long splice variant NM_181745.3), resulting in a shorter isoform (GPR120-S) lacking a 16 aa protein segment compared to isoform GPR120-L. The assay platform utilizes HEK-293 cells stably transfected to express the Human GPR120 short form. These cells are first loaded with the Ca^+2 sensitive dye, Fluo-4 NW. Upon stimulation, intracellular released Ca^+2 can bind to the dye and alter its fluorescence intensity. This increase in fluorescence signal, and thus the flux in intracellular [Ca^2+], is detected and quantitated by fluorescence imaging using a FLIPR reader. The effect of the agonist is measured as a function of concentration and used to calculate an EC50 based upon a response curve.
In this procedure 2500 cells/well were employed.
A Human GPR120 clone (Genbank accession number NM_001195755.1) was placed into the pcDNA3.1 mammalian expression vector carrying the neomycin resistance gene. A stable mammalian cell was generated by placing the above clone into a HEK293 background. Clonal cells responding to long chain fatty acids had expression levels of GPR120 confirmed by RT-qPCR. Human HEK-GPR120 cells were cultured in Dulbecco's Modified Eagle's Medium (DMEM)/F12 medium supplemented with 10% fetal bovine serum (FBS), 1% L-Glutamine and 1% penicillin/streptomycin and 0.5 mg/ml G-418. Cells were split 2 times a week to keep the cells in the log-phase growth.
In preparation for the assay, HEK cells stably transfected with Human GPR120 (2.5K cells per well in 25 uL growth medium) were seeded into 384-well plates and then incubated overnight (37° C., 5% CO2). The next day, the media was changed to 20 μL assay buffer and the cell starved for 1 h at 37° C. The dye loading solution (2× dye) was prepared using 10 mL assay buffer, 100 μL of 250 mM probenecid, 1 bottle of Component A, and 20 μl of dye in DMSO. Twenty μL of the 2× dye loading buffer was then added to each well. The plates were incubated at 37° C. for 30 min, then at room temperature for an additional 15 minutes, before performing the assay on FLIPR. Test compounds were prepared in assay buffer (2 uL of cpd+198 uL assay buffer, final DMSO in assay plate is 0.2%) at the desired concentration, more particularly at 100, 50, 25, 12.5, 6.25, 3.125, 1.562, 0.781, 0.391, 0.195, 0.098, 0.049, 0.024 and 0.012 μM.
The assay was performed on a FLIPR plate reader using the following parameters. Baseline was read for 10 seconds at 1 sec intervals. The program was set to transfer 10 μL of ligand from compound plate to cell plate after baseline reading. Aspiration was executed at: 10 μL/sec speed, 4.6 μL height; Dispensing was executed at: 30 μL/sec speed, 45 μL height. After compound addition, each well was read for 300 sec, with measurements collected at 1 sec intervals.
The kinetic data from the FLIPR was based upon a 5 minute window for data collection. The fluorescence of each sample well was used for individual calculations of a normalized RFU value, which was defined as maximum response minus the minimum response. The normalized fluorescence reading (RFU) was calculated as follows: RFU=Fmax−Fmin The data were fitted to a sigmoidal dose-response curve with a variable Hill slope (<2) using nonlinear regression with GraphPad Prism 5.0 to calculate the EC50 values. The Fitting Equation was: Y=Bottom+(Top−Bottom)/(1+10^((Log EC50−X)*HillSlope)), where X is the log of the concentration and Y is the response.
In the case of `CCc1ccc(-c2nsc(C(F)(F)F)c2COc2c(F)cc(C3CC3C(=O)O)cc2F)cc1` (stereo not shown) [Cpd 163, 2-(4-[[3-(4-ethylphenyl)-5-(trifluoromethyl)-1,2-thiazol-4-yl]methoxy]-3,5-difluorophenyl)cyclopropane-1-carboxylic acid], the EC50 is reported as 203 nM.
Compound `Cc1ccc(-c2csc(C(F)(F)F)c2COc2c(F)cc(CCC(=O)O)cc2F)cn1` [Cpd 62, 3-(3,5-difluoro-4-((4-(6-methylpyridin-3-yl)-2-(trifluoromethyl)thiophen-3-yl)methoxy)phenyl)propanoic acid] has an EC50 of 747 nM.
`O=C(O)CCc1ccc(OCc2c(-c3ccc(Cl)cc3)nsc2C(F)(F)F)c(F)c1` [Cpd 68, 3-(4-[[3-(4-chlorophenyl)-5-(trifluoromethyl)-1,2-thiazol-4-yl]methoxy]-3-fluorophenyl)propanoic acid] was tested, and the EC50 was 28 nM.
With `COc1cc(-c2nsc(C(F)(F)F)c2COc2c(F)cc(CCC(=O)O)cc2F)ccc1Cl` [Cpd 177, 3-(4-((3-(4-chloro-3-methoxyphenyl)-5-(trifluoromethyl)isothiazol-4-yl)methoxy)-3,5-difluorophenyl)propanoic acid] the EC50 was 263 nM.
With `Cc1c(CCC(=O)O)ccc(OCc2c(-c3ccc(C(C)F)cc3)nsc2C(F)(F)F)c1C` (stereo not shown) [Cpd 146, 3-[4-([3-[4-(1-fluoroethyl)phenyl]-5-(trifluoromethyl)-1,2-thiazol-4-yl]methoxy)-2,3-dimethylphenyl]propanoic acid] the EC50 was 165 nM.
In the case of `CC(=O)c1ccc(-c2nsc(C(F)(F)F)c2COc2c(F)cc(CCC(=O)O)cc2F)cc1` [Cpd 131, 3-(4-[[3-(4-acetylphenyl)-5-(trifluoromethyl)-1,2-thiazol-4-yl]methoxy]-3,5-difluorophenyl) propanoic acid], the EC50 is reported as 129 nM.
`CCc1ccc(-c2cc(F)sc2COc2ccc(CCCO)c(F)c2F)cc1` [Cpd 17, 3-(4-[[3-(4-ethylphenyl)-5-fluorothiophen-2-yl]methoxy]-2,3-difluorophenyl)propan-1-ol] was tested, and the EC50 was 406 nM.
Work on `CCc1ccc(-c2nsc(OC)c2COc2ccc(CCC(=O)O)c(C)c2C)cc1` [Cpd 228, 3-(4-[[3-(4-ethylphenyl)-5-methoxy-1,2-thiazol-4-yl]methoxy]-2,3-dimethylphenyl)propanoic acid] yielded an EC50 of 923 nM.
Compound `O=C(O)CCc1cc(F)c(OCc2sc(Cl)cc2-c2ccc(Cl)cc2)c(F)c1` [Cpd 10, 3-(4-[[5-chloro-3-(4-chlorophenyl)thiophen-2-yl]methoxy]-3,5-difluorophenyl)propanoic acid] has an EC50 of 123 nM.
`CCc1ccc(-c2snc(Cl)c2COc2c(F)cc(CCC(=O)O)cc2F)cc1` [Cpd 124, 3-(4-[[3-chloro-5-(4-ethylphenyl)-1,2-thiazol-4-yl]methoxy]-3,5-difluorophenyl)propanoic acid] gave an EC50 of 114 nM.
`CCc1ccc(-c2cc(C(F)(F)F)sc2COc2ccc(CCC(=O)O)c(F)c2F)cc1` [Cpd 21, 3-(4-((3-(4-ethylphenyl)-5-(trifluoromethyl)thiophen-2-yl)methoxy)-2,3-difluorophenyl)propanoic acid] showed an EC50 of 788 nM.
`CCc1ccc(-c2nsc(C(F)(F)F)c2COc2ccc(CCC(=O)O)c(C(F)(F)F)c2C)cc1` [Cpd 242, 3-(4-[[3-(4-ethylphenyl)-5-(trifluoromethyl)-1,2-thiazol-4-yl]methoxy]-3-methyl-2-(trifluoro-methyl)phenyl)propanoic acid] showed an EC50 of 1290 nM.
With `Cc1ccc(-c2csc(C(F)(F)F)c2COc2c(F)cc(CCCO)cc2F)cn1` [Cpd 36, 3-(3,5-difluoro-4-((4-(6-methylpyridin-3-yl)-2-(trifluoromethyl)thiophen-3-yl)methoxy)phenyl)propan-1-61] the EC50 was 90 nM.
`Cc1c(CCCO)ccc(OCc2sc(Cl)cc2-c2ccc(Cl)cc2)c1C` [Cpd 15, 3-(4-[[5-chloro-3-(4-chlorophenyl)thiophen-2-yl]methoxy]-2,3-dimethylphenyl)propan-1-ol] gave an EC50 of 266 nM.
For `COc1ccc(-c2snc(OC)c2COc2c(F)cc(CCC(=O)O)cc2F)cc1` [Cpd 182, 3-(3,5-difluoro-4-[[3-methoxy-5-(4-methoxyphenyl)-1,2-thiazol-4-yl]methoxy]phenyl)propanoic acid], the EC50 was 281 nM.
`O=C(O)CCc1ccc(OCc2c(-c3ccc(Cl)cc3)csc2C(F)(F)F)c(F)c1F` [Cpd 47, 3-(4-((4-(4-chlorophenyl)-2-(trifluoromethyl)thiophen-3-yl)methoxy)-2,3-difluorophenyl)propanoic acid] was tested, and the EC50 was 166 nM.
`CCCc1ccc(-c2snc(Cl)c2COc2ccc(CCC(=O)O)c(C)c2C)cc1` [Cpd 218, 3-(4-[[3-chloro-5-(4-propylphenyl)-1,2-thiazol-4-yl]methoxy]-2,3-dimethylphenyl)propanoic acid] gave an EC50 of 688 nM.
Work on `Cc1c(CCC(=O)O)ccc(OCc2c(-c3ccc(Cl)cc3F)csc2C(F)(F)F)c1C` [Cpd 59, 3-(4-((4-(4-chloro-2-fluorophenyl)-2-(trifluoromethyl)thiophen-3-yl)methoxy)-2,3-dimethylphenyl)propanoic acid] yielded an EC50 of 348 nM.
`COc1ccc(-c2csc(C(F)(F)F)c2COc2ccc(CCC(=O)O)c(C)c2C)cc1` [Cpd 60, 3-(4-((4-(4-methoxyphenyl)-2-(trifluoromethyl)thiophen-3-yl)methoxy)-2,3-dimethylphenyl)propanoic acid] was tested, and the EC50 was 510 nM.
For `CCc1ccc(-c2nsc(C(F)(F)F)c2COc2ccc(CCC(=O)O)c3sccc23)cc1` [Cpd 92, 3-(4-[[3-(4-ethylphenyl)-5-(trifluoromethyl)-1,2-thiazol-4-yl]methoxy]-1-benzothiophen-7-yl)propanoic acid], the EC50 was 70 nM.
Work on `Cc1cc(OCc2c(-c3c(F)cc(Cl)cc3F)nsc2C(F)(F)F)c(F)cc1CCC(=O)O` [Cpd 207, 3-(4-((3-(4-chloro-2,6-difluorophenyl)-5-(trifluoromethyl)isothiazol-4-yl)methoxy)-5-fluoro-2-methylphenyl)propanoic acid] yielded an EC50 of 566 nM.
`CCc1ccc(-c2nsc(CC)c2COc2ccc(CCC(=O)O)c(C)c2C)cc1` [Cpd 217, 3-(4-[[5-ethyl-3-(4-ethylphenyl)-1,2-thiazol-4-yl]methoxy]-2,3-dimethylphenyl)propanoic acid] showed an EC50 of 677 nM.
`O=C(O)CCc1ccc(OCc2csnc2-c2ccc(Cl)s2)c(F)c1F` [Cpd 226, 3-(4-((3-(5-chlorothiophen-2-yl)isothiazol-4-yl)methoxy)-2,3-difluorophenyl)propanoic acid] gave an EC50 of 849 nM.
Compound `Cc1cc(OCc2c(-c3ccc(Cl)cc3)nsc2C(F)(F)F)c(F)cc1CCC(=O)O` [Cpd 125, 3-(4-((3-(4-chlorophenyl)-5-(trifluoromethyl)isothiazol-4-yl)methoxy)-5-fluoro-2-methylphenyl)propanoic acid] has an EC50 of 121 nM.
Work on `COc1cc(-c2nsc(C(F)(F)F)c2COc2ccc(CCC(=O)O)c(C)c2C)ccc1Cl` [Cpd 144, 3-(4-((3-(4-chloro-3-methoxyphenyl)-5-(trifluoromethyl)isothiazol-4-yl)methoxy)-2,3-dimethylphenyl)propanoic acid] yielded an EC50 of 160 nM.
